US6806267B1, “Apoptosis-inducing compounds” (priority 1998, dated 2004)
Where two headings read alike, the source gives them in different places.

Key:
[1] = tested on: CML cell lines K562, KYO.1 and Lama 84; assay: Agarose gel electrophoresis of DNA ladders, CML cells; assay type: cell-based, human; conditions: all three CML cell lines
[2] = target: T1, peripheral-type benzodiazepine receptor (PBR) (Homo sapiens, UniProt P30536); assay: Radioligand binding assay, inhibition of [^3H]PK 11195 binding to HL-60 homogenates; conditions: HL-60 homogenates, 2 nM [^3H]PK 11195; mean±SEM; read-out: Inhibition of [^3H]PK 11195 binding to the PBR, Ki value
T1 construct: Cell homogenates (50 μg protein) were incubated with 0.5-50 nM [^3H]; PK 11195; endogenous in cells; host or cells: HL-60 cell homogenate
Description: HL-60 cells were harvested by centrifugation at 600 g for 5 min and washing in phosphate-buffered saline. The resulting cell pellet was homogenised in 50 mM Tris/HCl buffer, pH 7.4 (2 ml), using an Ultraturrax homogeniser (10 sec) and then passed 5 times through a 21 gauge needle. Cell homogenates (50 μg protein) were incubated with 0.5-50 nM [^3H] PK 11195 in 50 mM Tris/HCl buffer, pH 7.4 (incubation buffer), in a total volume of 0.5 ml on ice. Total and non-specific/non-saturable binding in each case was determined in the absence and presence of 10 μM unlabelled PK 11195 respectively. All samples were incubated in triplicate for 60 min. The incubation mixtures were then filtered and counted as previously described (O'Beirne, et al., 1988). When testing the potency of a compound to inhibit [^3H] PK 11195 binding, samples were incubated with 2 nM [3H] PK 11195 and various concentrations (0.1 nM to 1 μM) of compound and subsequently treated exactly as above. The resulting Ki values were then generated by the use of the computer programs EBDA and LIGAND.
The amount of radioactivity bound in the presence of the displacer was expressed as a percentage of control bonding and the values represent the mean±SEM of triplicate determinations from one representative experiment performed at least twice. The Ki values were obtained as described in Methods section.

[3] = tested on: normal bone marrow progenitor cells; assay type: cell-based, human; conditions: 10 μM, 72 hours; for colonies scored, mean of 10 normal bone marrow samples: colonies scored after 14 days
Description: Bone Marrow samples from donor patients were suspended in RPMI and heparin. Approximately 5 mls of Lympoprep was poured into a sterilin and the bone marrow sample was gently layered on top. The sample was centrifuged at 1800 g for 25 min, brake at 2. Following centrifugation, the buffy coat layer which contained the mononucleur fraction was gently removed using a sterile pasteur pipette and was transferred to a fresh tube. Approximately 10 mls of RPMI was added and the sample was centrifuged at 1800 g for 10 minutes, brake at 9. The supernatant was removed and the wash repeated. The pellet was resuspended in approximately 2 mls of RPMI. 20 μl was removed from the sample, mixed with 380 μl of ethidium bromide/acridine orange mix.(each at 100 μg/ml in PBS, 1:1 v/v). Ethidium bromide and acridine orange are fluorescent dyes which bind DNA. Acridine orange intercalates into DNA giving it a green appearance. Ethidium bromide is taken up by non-viable cells only. This dye also intercalates into the DNA, making it appear orange. The cells were counted under a fluorescent microscope and the volume of cells was adjusted to obtain 4×10^6 cells per ml. Cells were divided into 2 flasks and treated with 0.5% (v/v) ethanol or 10 μM PBOX-6. 100 μl was taken from each flask and added to 1.9 mls of culture media (0.58 ml methylcellulose, 0.55 ml FCS, 0.18 ml BSA, 0.21 ml RPMI, 5 U/ml of granulocytoe monocyte-colony stimulating factor (GM-CSF) and 20 U/ml of erythropoietin (EPO). Tubes were mixed by vortexing and allowed to stand for 1 min before adding 0.5 ml into each of three wells of a 4 well dish. 0.5 ml of sterile water was added to the fourth well. Plates were incubated at 37° C. for 14 days. After 14 days, colonies were scored. A colony is scored as a cluster containing >40 cells, which originates form one stem cell. […]

caspase 3 = assay type: cell-based, human
Description: (§1) Cells (5×10^6 cells) were harvested by centrifugation, washing in ice-cold phosphate-buffered saline and the pellets resuspended in 200 μl of harvesting buffer (20 mM Hepes, pH 7.5, 10% (w/v) sucrose, 0.1% (w/v) CHAPS, 2 mM dithiotreitol, 0.1% (v/v) Nonidet NP40, 1 mM sodium EDTA and 1 mM phenylmethylsulfonyl fluoride) supplemented with protease inhibitors (1 μg/ml pepstatin A and 1 μg/ml leupeptin). Following incubation on ice for 10 min, samples were passed up and down 10 times through a 21 gauge needle. Following a further incubation on ice for 10 min the homogenates were centrifuged at 20,000 g for 20 min and the resulting supernatants used to measure caspase 3 activity. This enzyme activity was determined by a fluorometric assay using the substrate Ac-DEVD-AMC, which is cleaved by caspase 3 to release the fluorescent leaving group, amino-4-methyl coumarin (AMC). Enzyme extracts (50 μg) were incubated with 100 mM Hepes, pH 7.5, containing 10% (w/v) sucrose, 0.1% (w/v) CHAPS, 10 mM dithiotreitol and 20 μM substrate in a total reaction volume of 3 ml. Following incubation for 60 min at 25° C., fluorescence was monitored continuously using a spectrofluorimeter (excitation wavelength 380 nm, emission wavelength 460 nm). The amount of AMC released was determined by comparison with a standard curve generated with known amounts of AMC.

caspase 3-like proteases = assay type: cell-based, human; conditions: HL-60 cells
Description: as §1

Cytochrome C = Cytochrome C Western blot, HL-60 cytosol; assay type: cell-based, human; conditions: HL-60 cells
Description: Cells (15×10^6) were harvested by centrifugation at 1800 g for 10 min at 4° C. After being washed once with ice-cold phosphate-buffered saline, the cell pellet was suspended in 100 μl of ice-cold buffer A (20 mM Hepes, pH 7.5, 10 mM KCl, 1.5 mM MgCl2, 1 mM sodium EDTA, 1 mM sodium EGTA, 1 mM dithiotreitol and 0.1 mM phenylmethylsulfonyl fluoride) supplemented with protease inhibitors (5 μg/ml pepstatin A, 10 μg/ml leupeptin and 2 μg/ml of aprotinin). The cells were left to sit on ice for 15 min and then centrifuged at 20,000 g for 20 min. The resulting supernatant was stored at −70° C. until measurement of cytochrome C. Protein determination was measured by using the Bradford assay. Equal amounts of protein were resolved by SDS-polyacrylamide gel electrophoresis in 15% gels and transferred onto nitro-cellulose. Membranes were blocked with phosphate-buffered saline/5% (w/v) dry milk and probed with anti-cytochrome C antibody. Blots were washed, incubated with goat anti-mouse IgG peroxidase conjugate and developed by ECL according to the manufacturer's recommendations.

T1 sequence (P30536 whole entry): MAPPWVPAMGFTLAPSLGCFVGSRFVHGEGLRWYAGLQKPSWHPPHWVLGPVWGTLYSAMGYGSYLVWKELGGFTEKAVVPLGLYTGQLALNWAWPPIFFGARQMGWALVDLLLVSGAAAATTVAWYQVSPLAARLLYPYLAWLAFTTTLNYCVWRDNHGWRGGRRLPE

CN(C)C(=O)OC1=C(c2cccc3ccccc23)Oc2ccccc2-n2cccc21 [PBOX-6, 7-((Dimethylcarbamoyl)oxy)-6-(1-naphthyl)pyrrolo[2,1-d][1,5]benzoxazepine]
internucleosomal DNA fragmentation (DNA ladders) [1]: DNA laddering pattern was visible | Ki [2]: 6.7 ± 1.7 nM | effect on normal bone marrow progenitor cells [3]: no significant effect | colonies scored, mean of 10 normal bone marrow samples [3]: 17 | colonies scored, mean of 10 normal bone marrow samples ([3]; listed as PBOX 6): 16.9 | caspase 3 activation (caspase 3; K562 and Lama 84, 16 hours): activated | caspase 3 activation (caspase 3; KYO.1 cells): not detected | time at which caspase 3-like protease activity became evident (caspase 3-like proteases): 6 h | activation of caspase 3-like proteases (caspase 3-like proteases; DEVD-AMC substrate): dose-dependent activation of caspase 3-like proteases | Cytochrome C in the cytosol (Cytochrome C): accumulation of Cytochrome C in the cytosol
